In patent publication US7642245B2, “Antibacterial compounds having a (pyrrole carboxamide)-(benzamide)-(imidazole carboxamide) motif” (Oscient Pharmaceuticals Corporation, priority 2002, dated 2010):

Assays:
[1] = system: S. aureus ATCC 13709; test: MIC, NCCLS broth microdilution; format: cell-based, Staphylococcus aureus; details: A = S. aureus ATCC 13709 (MSSA)
Excerpt: (§1) In vitro biological activity data were collected for a variety of microorganisms, including Staphylococcus aureus (ATCC 27660, a methicillin resistant strain (MRSA); ATCC 13709, a methicillin sensitive strain (MSSA)), Enterococcus faecalis (ATCC 29212), Bacillus cereus (ATCC 11778), Streptococcus pneumoniae (ATCC 49619), Candida albicans (ATCC 38247), Escherichia coli (ATCC 25922), and Moraxella (now Branhamella) catarrhalis (ATCC 25238).
(§2) The minimal inhibition concentration (MIC) of these compounds was determined using the National Committee for Clinical Laboratory Standards (NCCLS) broth microdilution assay in microtiter plates, as set forth in: (1) the guidelines of the National Committee for Clinical Laboratory Standards (NCCLS) Document M7-A4 (NCCLS, 1997); (2) the guidelines of the National Committee for Clinical Laboratory Standards (NCCLS) Document M11-A4 (NCCLS, 1997); and (3) the guidelines and reference method of the National Committee for Clinical Laboratory Standards (NCCLS) Document M27-T (NCCLS, 1995). For antifungal assays, the method recommended in Murray, P R., 1995 Manual of Clinical Microbiology (ASM Press, Washington, DC.), was employed.

[2] = system: S. aureus ATCC 27660; test: MIC, NCCLS broth microdilution; format: cell-based, Staphylococcus aureus; details: B = S. aureus ATCC 27660 (MRSA)
Excerpt: as §1, §2

[3] = system: E. faecalis ATCC 29212; test: MIC, NCCLS broth microdilution; format: cell-based, Enterococcus faecalis; details: C = E. faecalis ATCC 29212
Excerpt: as §1, §2

[4] = system: B. cereus ATCC 11778; test: MIC, NCCLS broth microdilution; format: cell-based, Bacillus cereus; details: D = B. cereus ATCC 11778
Excerpt: as §1, §2

[5] = system: S. pneumoniae ATCC 49619; test: MIC, NCCLS broth microdilution; format: cell-based, Streptococcus pneumoniae; details: E = S. pneumoniae ATCC 49619
Excerpt: as §1, §2

[6] = system: C. albicans ATCC 38247; test: MIC, antifungal assay; format: cell-based, Candida albicans; details: F = C. albicans ATCC 38247
Excerpt: as §1, §2

[7] = system: E. coli ATCC 25922; test: MIC, NCCLS broth microdilution; format: cell-based, Escherichia coli; details: G = E. coli ATCC 25922
Excerpt: as §1, §2

[8] = system: M. catarrhalis (ATCC 25238); test: MIC, NCCLS broth microdilution; format: cell-based, Moraxella (now Branhamella) catarrhalis; details: H = M. catarrhalis (ATCC 25238)
Excerpt: as §1, §2

Compound	Minimum Inhibitory Concentration (MIC) [1]	Minimum Inhibitory Concentration (MIC) [2]	Minimum Inhibitory Concentration (MIC) [3]	Minimum Inhibitory Concentration (MIC) [4]	Minimum Inhibitory Concentration (MIC) [5]	Minimum Inhibitory Concentration (MIC) [6]	Minimum Inhibitory Concentration (MIC) [7]	Minimum Inhibitory Concentration (MIC) [8]
CCN(CCNC(=O)c1nc(NC(=O)c2ccc(NC(=O)c3cc(NC(=O)c4cc5ccccc5cn4)cn3C)cc2)cn1C)CCOC [Compound A-21]	+++ (MIC ≦ 4 μg/mL)	+++ (MIC ≦ 4 μg/mL)	+++ (MIC ≦ 4 μg/mL)	+++ (MIC ≦ 4 μg/mL)	+++ (MIC ≦ 4 μg/mL)	>32 µg/mL	>32 µg/mL	+++ (MIC ≦ 4 μg/mL)
COCCN(CCNC(=O)c1nc(NC(=O)c2ccc(NC(=O)c3cc(NC(=O)c4cc5ccccc5cn4)cn3C)cc2)cn1C)CCOC [Compound A-22]	+++ (MIC ≦ 4 μg/mL)	+++ (MIC ≦ 4 μg/mL)	+++ (MIC ≦ 4 μg/mL)	+++ (MIC ≦ 4 μg/mL)	+++ (MIC ≦ 4 μg/mL)	>32 µg/mL	>32 µg/mL	+++ (MIC ≦ 4 μg/mL)
Cn1cc(NC(=O)c2cc3ccccc3cn2)cc1C(=O)Nc1ccc(C(=O)Nc2cn(C)c(C(=O)NCCNc3ccccn3)n2)cc1 [Compound A-23]	+++ (MIC ≦ 4 μg/mL)	+++ (MIC ≦ 4 μg/mL)	+++ (MIC ≦ 4 μg/mL)	+++ (MIC ≦ 4 μg/mL)	+++ (MIC ≦ 4 μg/mL)	>32 µg/mL	>32 µg/mL	+++ (MIC ≦ 4 μg/mL)
CCN(CC)CCNC(=O)c1nc(NC(=O)c2ccc(NC(=O)c3cc(NC(=O)c4cc5ccccc5cn4)cn3C)cc2)cn1C [Compound A-25]	+++ (MIC ≦ 4 μg/mL)	+++ (MIC ≦ 4 μg/mL)	+++ (MIC ≦ 4 μg/mL)	+++ (MIC ≦ 4 μg/mL)	+++ (MIC ≦ 4 μg/mL)	>32 µg/mL	>32 µg/mL	+++ (MIC ≦ 4 μg/mL)
COCCN(C)CCNC(=O)c1nc(NC(=O)c2ccc(NC(=O)c3cc(NC(=O)c4cc5ccccc5cn4)cn3C)cc2)cn1C [Compound A-29]	+++ (MIC ≦ 4 μg/mL)	+++ (MIC ≦ 4 μg/mL)	+++ (MIC ≦ 4 μg/mL)	+++ (MIC ≦ 4 μg/mL)	+++ (MIC ≦ 4 μg/mL)	+ (12 ≦ MIC ≦ 32 μg/mL)	++ (4 < MIC < 12 μg/mL)	+++ (MIC ≦ 4 μg/mL)
CCOCCCNCCNC(=O)c1nc(NC(=O)c2ccc(NC(=O)c3cc(NC(=O)c4cc5ccccc5cn4)cn3C)cc2)cn1C [Compound A-31]	+++ (MIC ≦ 4 μg/mL)	+++ (MIC ≦ 4 μg/mL)	++ (4 < MIC < 12 μg/mL)	++ (4 < MIC < 12 μg/mL)	+++ (MIC ≦ 4 μg/mL)	+ (12 ≦ MIC ≦ 32 μg/mL)	>32 µg/mL	>32 µg/mL
CCN(CCO)CCNC(=O)c1nc(NC(=O)c2ccc(NC(=O)c3cc(NC(=O)c4cc5ccccc5cn4)cn3C)cc2)cn1C [Compound A-32]	+++ (MIC ≦ 4 μg/mL)	+++ (MIC ≦ 4 μg/mL)	+++ (MIC ≦ 4 μg/mL)	+++ (MIC ≦ 4 μg/mL)	+++ (MIC ≦ 4 μg/mL)	>32 µg/mL	>32 µg/mL	+++ (MIC ≦ 4 μg/mL)
Cn1cc(NC(=O)c2cc3ccccc3cn2)cc1C(=O)Nc1ccc(C(=O)Nc2cn(C)c(C(=O)NCCNCCCCCO)n2)cc1 [Compound A-33]	+++ (MIC ≦ 4 μg/mL)	+++ (MIC ≦ 4 μg/mL)	+++ (MIC ≦ 4 μg/mL)	+++ (MIC ≦ 4 μg/mL)	+++ (MIC ≦ 4 μg/mL)	>32 µg/mL	+++ (MIC ≦ 4 μg/mL)	>32 µg/mL

Next, values leading:

Minimum Inhibitory Concentration (MIC) [1]	Minimum Inhibitory Concentration (MIC) [2]	Minimum Inhibitory Concentration (MIC) [3]	Minimum Inhibitory Concentration (MIC) [4]	Minimum Inhibitory Concentration (MIC) [5]	Minimum Inhibitory Concentration (MIC) [6]	Minimum Inhibitory Concentration (MIC) [7]	Minimum Inhibitory Concentration (MIC) [8]	Compound
+++ (MIC ≦ 4 μg/mL)	+++ (MIC ≦ 4 μg/mL)	+++ (MIC ≦ 4 μg/mL)	+++ (MIC ≦ 4 μg/mL)	+++ (MIC ≦ 4 μg/mL)	+ (12 ≦ MIC ≦ 32 μg/mL)	+++ (MIC ≦ 4 μg/mL)	+++ (MIC ≦ 4 μg/mL)	COC1CCN(CCNC(=O)c2nc(NC(=O)c3ccc(NC(=O)c4cc(NC(=O)c5cc6ccccc6cn5)cn4C)cc3)cn2C)CC1 [Compound A-20]
+++ (MIC ≦ 4 μg/mL)	+++ (MIC ≦ 4 μg/mL)	+++ (MIC ≦ 4 μg/mL)	+++ (MIC ≦ 4 μg/mL)	+++ (MIC ≦ 4 μg/mL)	++ (4 < MIC < 12 μg/mL)	>32 µg/mL	+++ (MIC ≦ 4 μg/mL)	Cn1cc(NC(=O)c2cc3ccccc3cn2)cc1C(=O)Nc1ccc(C(=O)Nc2cn(C)c(C(=O)NCCN3CCCCCC3)n2)cc1 [Compound A-24]
+++ (MIC ≦ 4 μg/mL)	+++ (MIC ≦ 4 μg/mL)	+++ (MIC ≦ 4 μg/mL)	+++ (MIC ≦ 4 μg/mL)	+++ (MIC ≦ 4 μg/mL)	>32 µg/mL	>32 µg/mL	>32 µg/mL	Cn1cc(NC(=O)c2cc3ccccc3cn2)cc1C(=O)Nc1ccc(C(=O)Nc2cn(C)c(C(=O)NCCNCCN3CCOCC3)n2)cc1 [Compound A-26]
+++ (MIC ≦ 4 μg/mL)	+++ (MIC ≦ 4 μg/mL)	+++ (MIC ≦ 4 μg/mL)	+++ (MIC ≦ 4 μg/mL)	+++ (MIC ≦ 4 μg/mL)	>32 µg/mL	>32 µg/mL	+++ (MIC ≦ 4 μg/mL)	Cn1cc(NC(=O)c2cc3ccccc3cn2)cc1C(=O)Nc1ccc(C(=O)Nc2cn(C)c(C(=O)NCCN3CCN(CCO)CC3)n2)cc1 [Compound A-27]
+++ (MIC ≦ 4 μg/mL)	+++ (MIC ≦ 4 μg/mL)	+++ (MIC ≦ 4 μg/mL)	+++ (MIC ≦ 4 μg/mL)	+++ (MIC ≦ 4 μg/mL)	+ (12 ≦ MIC ≦ 32 μg/mL)	++ (4 < MIC < 12 μg/mL)	+++ (MIC ≦ 4 μg/mL)	COCCNCCNC(=O)c1nc(NC(=O)c2ccc(NC(=O)c3cc(NC(=O)c4cc5ccccc5cn4)cn3C)cc2)cn1C [Compound A-28]
